The assay deals with subjects with vitiligo (depigmented areas on neck, trunk and extremities). Description: Efficacy and safety study in vitiligo, blinded investigator evaluation on a score of 0 to 7. The note with it: share of the subjects in the group; after the 20 week topical treatment regimen was completed; nonfacial areas. The class given is in vivo. The procedure:
An efficacy and safety study was conducted to compare the effects of bimatoprost monotherapy, mometasone monotherapy, and the combination of bimatoprost and mometasone. 18 randomized subjects completed the 20 week study, five coming in each of the bimatoprost monotherapy and mometasone monotherapy groups with the other eight coming in the bimatoprost/mometasone combination group. Subjects with vitiligo applied the corresponding drug(s) to depigmented areas on their neck, truck, and extremities. Per FDA request, facial areas where not treated during the study. For the bimatoprost monotherapy group, subjects were instructed to administer bimatoprost twice daily (morning and evening) for all 20 weeks. For the mometasone monotherapy group, subjects were instructed to administer mometasone once daily in the morning for weeks 1-12 and 17-20. Placebo (Cetaphil) was instructed to be administered in the morning for weeks 13-16 and in the evening for all 20 weeks. For the bimatoprost/mometasone combination group, subjects were instructed to administer mometasone once daily in the morning for weeks 1-12 and 17-20 and placebo was administered in the morning for weeks 13-16. Subjects were instructed to administer bimatoprost once daily evening for all 20 weeks. Subjects in either the bimatoprost monotherapy group or the bimatoprost/mometasone combination group the subjects were instructed to administer bimatoprost in the form of a 0.03 wt. % solution which was to be applied in a dose of 1 to 2 drops per 2 cm^2 body surface area. Subjects in either the mometasone monotherapy group or the bimatoprost/mometasone combination group the subjects were instructed to administer mometasone in the form of 0.1 wt. % mometasone furoate cream which was to be applied in a dose of 1 to 2 pea-sized quantities per anatomic area. The subjects were blind as to which group they were in and therefore which drug(s) they were administering. During the study period, the subjects were periodically evaluated by an investigator. The investigators evaluated the subjects on a score of 0 to 7 with 0 meaning that the subject's condition was worse, 1 being unchanged, 2 being slight improvement (approximately 10% improvement), 3 being mild improvement (approximately 10 to 25% improvement), 4 being moderate improvement (approximately 25 to 50% improvement), 5 being marked improvement (approximately 50 to 75% improvement), 6 being almost cleared (approximately 75 to 99% improvement), 7 being cleared (100% improvement). Like the subjects, the investigators were blind as to which group the subjects they were evaluating were in and therefore which drug(s) they were evaluating were administering.

With `CCNC(=O)CCC/C=C\C[C@@H]1[C@@H](/C=C/[C@@H](O)CCc2ccccc2)[C@H](O)C[C@@H]1O` [bimatoprost, Bimatoprost], the “subjects with mild improvement (score 3, approximately 10 to 25% improvement)” value is recorded as 60% and the “subjects with moderate improvement (score 4, approximately 25 to 50% improvement)” value came out at 40%.

With `C[C@@H]1C[C@H]2[C@@H]3CCC4=CC(=O)C=C[C@]4(C)[C@@]3(Cl)[C@@H](O)C[C@]2(C)[C@@]1(OC(=O)c1ccco1)C(=O)CCl` [mometasone, mometasone furoate], the “subjects with mild improvement (score 3, approximately 10 to 25% improvement)” value turned out to be 40% and the “subjects with slight improvement (score 2, approximately 10% improvement)” value is reported as 60%.

For the origin of these results see US20180200263A1, “TOPICAL TREATMENT REGIMENS CONTAINING A PROSTAGLANDIN F2a ANALOG AND A TOPICAL STEROID” (priority 2015, published 2018).
